The text on the data set: The following compounds were used as chelating agents in manufacture of cleaning liquids.

Structures are written as SMILES.

For `NCCC(=O)O` [ALA, β-Alanine], the pKa1 was determined as 2.35 and the pKa2 was found to be 9.87.

On to `N=C(N)NCCC[C@H](N)C(=O)O` [Arginine], for which the pKa1 is listed as 1.82, the pKa2 is on record as 9.01 and the pKa3 was 12.48.

With `O=C(O)CN(CCN(CC(=O)O)CC(=O)O)CCN(CC(=O)O)CC(=O)O` [DTPA, Diethylenetriaminepentaacetic acid], the pKa1 is on record as 2.14, the pKa2 is recorded as 2.38, the pKa3 worked out at 4.26 and the pKa4 is given as 8.60. The same molecule had a pKa5 of 10.53.

In the case of `O=P(O)(O)CN(CCN(CP(=O)(O)O)CP(=O)(O)O)CP(=O)(O)O` [EDTPO, N,N,N′,N′-Ethylenediaminetetrakis(methylenephosphonic acid)], the pKa1 came out at 1.46, the pKa2 came to 2.72, the pKa3 is 5.06 and the pKa4 came out at 6.18. The pKa5 was 6.63, the pKa6 is 7.43, the pKa7 is on record as 9.22 and the pKa8 is on record as 10.6.

In turn, `O=C(O)CC(O)(CC(=O)O)C(=O)O` [Citric acid] came in with a pKa3 of 6.71.

`O=C(O)C(O)C(O)C(=O)O` (stereo not drawn) [Tartaric acid]: the pKa2 is on record as 7.40.

`CC(O)(P(=O)(O)O)P(=O)(O)O` [HEDP, 1-Hydroxyethylidene-1,1′-diphosphonic acid] returned a pKa1 of 1.35, a pKa2 of 2.87, a pKa3 of 7.03 and a pKa4 of 11.3.

Molecule `O=C(O)CN(CCN(CC(=O)O)CC(=O)O)CC(=O)O` [EDTA, Ethylenediaminetetraacetic acid] displayed a pKa1 of 2.00, a pKa2 of 2.70, a pKa3 of 6.2 and a pKa4 of 10.30.

`NCC(=O)O` [Gly, Glycine]: the pKa1 came out at 2.35 and the pKa2 is given as 9.78.

These data come from patent publication US20210395645A1, “CLEANING LIQUID” (FUJIFILM Electronic Materials Co., Ltd., priority 2019, published 2021).
